PMC5379747, “Structural basis for a novel type of cytokinin-activating protein” (Scientific Reports, 2017)
Each block holds one compound with its values, some of them ahead of it.

Assays:
[1] = target: CgLOG (Cg2612) from Corynebacterium glutamicum (Corynebacterium glutamicum); assay: SEC; analytical, Superdex 200 10/300, 150 mM NaCl, 1 mL of 3 mg/ml; masses from a calibration curve of standards
Tt1465 (TtLOGII) = target: T1, Tt1465 (TtLOGII) (Thermus thermophilus, UniProt Q5SHT6); assay: TLC detection of adenine released from AMP; assay type: biochemical; details: 20 mM AMP, 36 mM Tris-HCl pH 8.0, 23 μM enzyme, 65 °C
T1 construct: gene TTHA1644; recombinant, prepared similarly to CgLOGII; hexamer
T1 sequence (Q5SHT6 1-217): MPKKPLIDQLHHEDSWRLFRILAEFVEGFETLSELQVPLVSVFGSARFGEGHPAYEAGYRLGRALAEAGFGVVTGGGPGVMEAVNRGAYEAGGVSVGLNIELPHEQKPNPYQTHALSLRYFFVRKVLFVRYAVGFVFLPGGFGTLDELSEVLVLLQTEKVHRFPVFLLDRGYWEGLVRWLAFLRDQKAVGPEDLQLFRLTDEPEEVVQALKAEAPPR

[2] = target: T2, Cg1261 (CgLOGII, CgLOGIIF) (Corynebacterium glutamicum, UniProt Q8NRE2, F152A); assay: TLC detection of adenine released from AMP; assay type: biochemical; details: 20 mM AMP, 36 mM Tris-HCl pH 8.0, 23 μM enzyme, 6 h
T2 construct: gene Cgl1110; full length, pET30a with C-terminal 6xHis, E. coli BL21(DE3), hexamer; residues 1-39 disordered in crystal

[3] = target: T3, Cg1261 (CgLOGII, CgLOGIIF) (Corynebacterium glutamicum, UniProt Q8NRE2, F153A); assay: TLC detection of adenine released from AMP; assay type: biochemical; details: 20 mM AMP, 36 mM Tris-HCl pH 8.0, 23 μM enzyme, 6 h
T3 construct: gene Cgl1110; full length, pET30a with C-terminal 6xHis, E. coli BL21(DE3), hexamer; residues 1-39 disordered in crystal

[4] = target: T4, Cg1261 (CgLOGII, CgLOGIIF) (Corynebacterium glutamicum, UniProt Q8NRE2); assay: TLC detection of adenine released from AMP; assay type: biochemical; details: 20 mM AMP, 36 mM Tris-HCl pH 8.0, 23 μM enzyme, 30 °C
T4 construct: gene Cgl1110; full length, pET30a with C-terminal 6xHis, E. coli BL21(DE3), hexamer; residues 1-39 disordered in crystal
T4 sequence (Q8NRE2 1-256): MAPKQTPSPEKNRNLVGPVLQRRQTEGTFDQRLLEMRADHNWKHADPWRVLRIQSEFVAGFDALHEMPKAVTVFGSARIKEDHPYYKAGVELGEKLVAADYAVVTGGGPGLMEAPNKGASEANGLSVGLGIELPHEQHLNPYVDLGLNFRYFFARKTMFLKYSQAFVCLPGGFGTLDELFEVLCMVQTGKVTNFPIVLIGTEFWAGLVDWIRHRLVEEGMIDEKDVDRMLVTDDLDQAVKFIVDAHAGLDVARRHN

[5] = target: T5, Cg1261 (CgLOGII, CgLOGIIF) (Corynebacterium glutamicum, UniProt Q8NRE2, D177A); assay: TLC detection of adenine released from AMP; assay type: biochemical; details: 20 mM AMP, 36 mM Tris-HCl pH 8.0, 23 μM enzyme, 6 h
T5 construct: gene Cgl1110; full length, pET30a with C-terminal 6xHis, E. coli BL21(DE3), hexamer; residues 1-39 disordered in crystal

Cg1261ΔDNR (CgLOGIIΔDNR) = target: T6, Cg1261ΔDNR (CgLOGIIΔDNR) (Corynebacterium glutamicum, UniProt Q8NRE2); assay: TLC detection of adenine released from AMP; assay type: biochemical; details: 20 mM AMP, 36 mM Tris-HCl pH 8.0, 23 μM enzyme, 30 °C
T6 construct: gene Cgl1110; E. coli expressed, hexamer

[6] = target: T7, Cg1261 (CgLOGII, CgLOGIIF) (Corynebacterium glutamicum, UniProt Q8NRE2, M185A); assay: TLC detection of adenine released from AMP; assay type: biochemical; details: 20 mM AMP, 36 mM Tris-HCl pH 8.0, 23 μM enzyme, 6 h
T7 construct: gene Cgl1110; full length, pET30a with C-terminal 6xHis, E. coli BL21(DE3), hexamer; residues 1-39 disordered in crystal

[7] = target: Cg1261 (CgLOGII), full-length, from Corynebacterium glutamicum ATCC 13032 (Corynebacterium glutamicum ATCC 13032); assay: SAXS; in solution, 4 °C, 0.5 ~4.5 mg/mL; molecular mass by the QR method
[8] = target: Cg1261 (CgLOGII), full-length, from Corynebacterium glutamicum ATCC 13032 (Corynebacterium glutamicum ATCC 13032); assay: crystal structure; CgLOGII crystals, space group C222_(1), three molecules in the asymmetric unit; hexamer generated by crystallographic symmetry; 1.95 Å
[9] = target: Cg1261 (CgLOGII), full-length, from Corynebacterium glutamicum ATCC 13032 (Corynebacterium glutamicum ATCC 13032); assay: SEC; analytical, Superdex 200 10/300, 150 mM NaCl, 1 mL of 3 mg/ml; masses from a calibration curve of standards
[10] = target: Cg1261 DNR-truncated (Cg1261ΔDNR) (Corynebacterium glutamicum ATCC 13032); assay: SAXS; in solution, 4 °C, 0.5 ~4.5 mg/mL; molecular mass by the QR method
[11] = target: Cg1261 DNR-truncated (Cg1261ΔDNR) (Corynebacterium glutamicum ATCC 13032); assay: SEC; analytical, Superdex 200 10/300, 150 mM NaCl, 1 mL of 3 mg/ml; masses from a calibration curve of standards

T5 sequence (Q8NRE2 entry or part of it D177A): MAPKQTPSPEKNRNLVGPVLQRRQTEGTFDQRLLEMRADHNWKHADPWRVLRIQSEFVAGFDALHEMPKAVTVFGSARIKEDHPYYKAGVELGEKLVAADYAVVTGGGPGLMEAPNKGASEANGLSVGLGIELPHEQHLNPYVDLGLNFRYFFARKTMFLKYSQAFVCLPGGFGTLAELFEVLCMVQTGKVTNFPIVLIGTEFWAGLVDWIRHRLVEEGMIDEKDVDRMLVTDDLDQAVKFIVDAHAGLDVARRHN
T3 sequence (Q8NRE2 entry or part of it F153A): as the sequence (Q8NRE2 entry or part of it D177A) above, with F153A, A177D counted along it
T2 sequence (Q8NRE2 entry or part of it F152A): as the sequence (Q8NRE2 entry or part of it D177A) above, with F152A, A177D counted along it
T7 sequence (Q8NRE2 entry or part of it M185A): as the sequence (Q8NRE2 entry or part of it D177A) above, with A177D, M185A counted along it

- stoichiometry N [1]: 2
Compound: CgLOG (Cg2612) from Corynebacterium glutamicum (enzyme)

Compound: Nc1ncnc2c1ncn2[C@@H]1O[C@H](COP(=O)(O)O)[C@@H](O)[C@H]1O [AMP]
- TLC detection of adenine released from AMP (Tt1465 (TtLOGII)): Tt1465 hydrolyzed AMP into an adenine base and ribose 5-phosphate
- TLC detection of adenine released from AMP [2]: such as Phe152, Phe153, and Met185, substituted with alanine still showed the activity
- TLC detection of adenine released from AMP [3]: such as Phe152, Phe153, and Met185, substituted with alanine still showed the activity
- TLC detection of adenine released from AMP [4]: hydrolyzed AMP into an adenine base and ribose 5-phosphate
- TLC detection of adenine released from AMP [5]: Asp177Ala substitution resulted in an almost complete loss of the activity
- TLC detection of adenine released from AMP (Cg1261ΔDNR (CgLOGIIΔDNR)): Cg1261ΔDNR showed the same level of phosphoribohydrolase activity as Cg1261
- TLC detection of adenine released from AMP [6]: such as Phe152, Phe153, and Met185, substituted with alanine still showed the activity

- stoichiometry N [7]: 6
- stoichiometry N [8]: 6
- stoichiometry N [9]: 6
Compound: Cg1261 (CgLOGII), full-length, from Corynebacterium glutamicum ATCC 13032 (enzyme)

- stoichiometry N [10]: 6
- stoichiometry N [11]: 6
Compound: Cg1261 DNR-truncated (Cg1261ΔDNR) (domain or fragment)
